Measurements taken from patent US5681800A, “Biodegradable branched synthetic ester base stocks and lubricants formed therefrom” (priority 1995, dated 1997).

Experiments:
[1] = Pour Point (ASTM D-97); type: physicochemical
Method: (§1) The properties listed in Tables 1 and 2 were determined as follows. Pour Point was determined using ASTM # D-97. Brookfield Viscosity at -25° C. was determined using ASTM # D-2983. Kinematic viscosity (@ 40 and 100° C.) was determined using ASTM # D-445. Viscosity index (VI) was determined using ASTM # D-2270. Biodegradation was determined using the Modified Sturm test (OECD Test No. 301B). Solubility with dispersant was determined by blending the desired ratios and looking for haze, cloudiness, two-phases, etc. Engine wear was determined using the NMMA Yamaha CE50S Lubricity test. Oxidation induction time was determined using a high pressure differential scanning calorimeter (HPDSC) having isothermal/isobaric conditions of 220° C. and 500 psi (3.445 MPa) air, respectively. Aquatic toxicity was determined using the Dispersion Aquatic Toxicity test. The acid number was determined using ASTM # D-664. The hydroxyl number of the respective samples was determined by infrared spectroscopy.

[2] = Kinematic viscosity (ASTM D-445); type: physicochemical
Method: as §1

[3] = Brookfield Viscosity at -25° C. (ASTM D-2983); type: physicochemical
Method: as §1

[4] = background; cited from earlier work
[5] = Viscosity index (ASTM D-2270); type: physicochemical
Method: as §1

[6] = Oxidation induction time by HPDSC; type: physicochemical; details: 220° C., 500 psi air
Method: *Oxidation Induction Time is the amount of time (in minutes) for a
molecule to oxidatively decompose under a particular set of conditions
using a high pressure differential scanning calorimeter (HPDSC).
The conditions used to evaluate these molecules were: 220° C.

[7] = Acid number (ASTM D-664); type: physicochemical
Method: as §1

Question: With `CCCCCCCCCCCOC(=O)CCCCC(=O)OCCCCCCCCCCC` [Di-undecyladipate] as the molecule, how does the “Pour Point” value [1] read?
Answer: Its value is “+21 °C”.

Question: And the “Vis. @ 40° C.” value [2]?
Answer: Its value is 13.92 cSt.

Question: And the “Vis. @ 100° C.” value [2]?
Answer: Its value is 2.80 cSt.

Question: What about the “Vis @ -25° C.” value [3] of the same molecule?
Answer: The value was “solid”.

Question: With `CCCCCCCCCC(=O)OCC(COC(=O)CCCCCCCCC)(COC(=O)CCCCCCCCC)COC(=O)CCCCCCCCC` [ester of pentaerythritol and n-C10 acid] as the molecule, how does the “viscosity at 40° C.” value [4] read?
Answer: Its value is “about 38.6 cSt”.

Question: For “triester of trimethylolpropane and isostearic acid [TMP/iC18]”, which “Viscosity Index” value [5] is on record?
Answer: The value was 147.

Question: And the “Pour Point” value [1]?
Answer: Its value is -20 °C.

Question: And the “Vis. @ 40° C.” value [2]?
Answer: Its value is 78.34 cSt.

Question: And the “Vis. @ 100° C.” value [2]?
Answer: The value was 11.94 cSt.

Question: And the “Oxidation Induction Time” value [6]?
Answer: Its value is 4.29 min.

Question: And the “-25° C. Viscosity” value ([3]; Tables 2 and 4)?
Answer: The value was 358,000 cps.

Question: What about the “Acid Number” value [7] of the same molecule?
Answer: Its value is 1.9 mgKOH/g.
